Experiments:
[1] = tested on: ob/ob mice; experiment: Blood glucose AUC in ob/ob mice after 14 d linagliptin; settings: 3 mg/kg/d
[2] = tested on: ob/ob mice; experiment: Blinded histological scoring of liver (fat content, markers of inflammation) in ob/ob mice; settings: 3 mg/kg/d, 14 d, n=9, p<0.01 vs. control 3±0.18
[3] = tested on: DIO mice; experiment: Blood glucose following OGTT (AUC) in diet-induced obesity model; assay type: in vivo; settings: 4 weeks, p<0.01
[4] = tested on: DIO mice; experiment: Liver fat content by magnetic resonance spectroscopy (MRS) in diet-induced obesity model; assay type: in vivo
From the text: Hepatic steatosis is a hallmark of patients with type 2 diabetes and underlies the pathogenesis of non-alcoholic fatty liver disease (NAFLD). Linagliptin is a selective and non-renal excreted inhibitor of dipeptidyl peptidase-4 (DPP-4). […]. Liver lipid content is detected by magnetic resonance spectroscopy (MRS) in vivo and ex vivo by analysis of liver triglycerides. […]. […] A significant reduction of liver fat content (MRS) is visible as early as 2 weeks on treatment. The correlation between liver lipid content as measured by MRS and hepatic triglyceride levels as measured ex vivo is r2=0.565 (p<0.0001).

[5] = metformin on its own, in the diabetic; cited from earlier work

CC#CCn1c(N2CCC[C@@H](N)C2)nc2c1c(=O)n(Cc1nc(C)c3ccccc3n1)c(=O)n2C [linagliptin, 1-[(4-methyl-quinazolin-2-yl)methyl]-3-methyl-7-(2-butyn-1-yl)-8-(3-(R)-amino-piperidin-1-yl)-xanthine]
Blood glucose AUC reduction [1]: 25% | Histological score (hepatic steatosis and inflammation) [2]: 2.2±0.13 | Blood glucose levels following an OGTT (AUC) suppressed ([3]; 3 mg/kg/d): 16%-20% | Blood glucose levels following an OGTT (AUC) suppressed ([3]; 30 mg/kg/d): 20%-26% | Time on treatment at which significant reduction of liver fat content (MRS) is visible ([4]; DIO mice): 2 weeks | Liver fat content (MRS detection) ([4]; DIO mice fed 2 or 3 months, 30 mg/kg/d, and 3 mg/kg/d in 3 month fed mice, 4 weeks): reduced significantly

CN(C)C(=N)N=C(N)N [metformin]
Average improvement in the HbA1c value [5]: 1.0-1.5%

— US20120094894A1, “ANTIDIABETIC MEDICATIONS COMPRISING A DPP-4 INHIBITOR (LINAGLIPTIN) OPTIONALLY IN COMBINATION WITH OTHER ANTIDIABETICS” (BOEHRINGER INGELHEIM INTERNATIONAL GMBH, priority 2009, published 2012)
